From the supplement of paper PMC4862054

Key:
Conditions in all cases: incubation time: 72 h
BT-474 [1] = test: normalised response (% of control), CellTiter-Glo; higher = more viable cells (100 = DMSO, 0 = benzethonium chloride kill control)
Procedure, shortened: (§1)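 Breast cancer cell lines, seeded at 20 µl suspension per well, were incubated for 72 h in 384-well plates containing compound at 5 concentrations. These concentrations rose in 10-fold steps over a 10,000-fold range set for each compound. CellTox Green fluorescence (485/520 nm) was read, then CellTiter-Glo luminescence after 10 min at room temperature, and each plate was normalised to 0.1 % DMSO (100) and a positive kill control (0). Values are normalised signals, each at one concentration.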

BT-549 [2] = test: as above
Procedure, shortened: as §1

CAL-120 [3] = test: as above
Procedure, shortened: as §1

CAL-148 [4] = test: as above
Procedure, shortened: as §1

CAL-51 [5] = test: as above
Procedure, shortened: as §1

CAL-85-1 [6] = test: as above
Procedure, shortened: as §1

DU-4475 [7] = test: as above
Procedure, shortened: as §1

HCC1143 [8] = test: as above
Procedure, shortened: as §1

HCC1599 [9] = test: as above
Procedure, shortened: as §1

HCC1937 [10] = test: as above
Procedure, shortened: as §1

HDQ-P1 [11] = test: as above
Procedure, shortened: as §1

Hs578T [12] = test: as above
Procedure, shortened: as §1

MCF-10A = test: as above
Procedure, shortened: as §1

MDA-MB-231 [13] = test: as above
Procedure, shortened: as §1

MDA-MB-436 [14] = test: as above
Procedure, shortened: as §1

MDA-MB-453 [15] = test: as above
Procedure, shortened: as §1

MDA-MB-468 [16] = test: as above
Procedure, shortened: as §1

MFM-223 [17] = test: as above
Procedure, shortened: as §1

SK-BR-3 [18] = test: as above
Procedure, shortened: as §1

BT-474 [19] = test: normalised viability (% of control), CellTiter-Blue; higher = more viable cells (100 = DMSO, 0 = benzethonium chloride kill control)
Experimental: (§2)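 DSRT, CellTiter-Blue viability, 72 h incubation. Signal is normalised to DMSO and benzethonium chloride controls. Value is the normalised response at dose 1.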

BT-549 [20] = test: as above
Experimental: as §2

CAL-120 [21] = test: as above
Experimental: as §2

CAL-148 [22] = test: as above
Experimental: as §2

CAL-51 [23] = test: as above
Experimental: as §2

CAL-85-1 [24] = test: as above
Experimental: as §2

DU-4475 [25] = test: as above
Experimental: as §2

HCC1143 [26] = test: as above
Experimental: as §2

HCC1599 [27] = test: as above
Experimental: as §2

HCC1937 [28] = test: as above
Experimental: as §2

HDQ-P1 [29] = test: as above
Experimental: as §2

Hs578T [30] = test: as above
Experimental: as §2

MDA-MB-231 [31] = test: as above
Experimental: as §2

MDA-MB-436 [32] = test: as above
Experimental: as §2

MDA-MB-453 [33] = test: as above
Experimental: as §2

MDA-MB-468 [34] = test: as above
Experimental: as §2

MFM-223 [35] = test: as above
Experimental: as §2

SK-BR-3 [36] = test: as above
Experimental: as §2

SMILES	normalised response (BT-474 [1])	normalised response (BT-549 [2])	normalised response (CAL-120 [3])	normalised response (CAL-148 [4])	normalised response (CAL-51 [5])	normalised response (CAL-85-1 [6])	normalised response (DU-4475 [7])	normalised response (HCC1143 [8])	normalised response (HCC1599 [9])	normalised response (HCC1937 [10])	normalised response (HDQ-P1 [11])	normalised response (Hs578T [12])	normalised response (MCF-10A)	normalised response (MDA-MB-231 [13])	normalised response (MDA-MB-436 [14])	normalised response (MDA-MB-453 [15])	normalised response (MDA-MB-468 [16])	normalised response (MFM-223 [17])	normalised response (SK-BR-3 [18])	normalised viability (BT-474 [19])	normalised viability (BT-549 [20])	normalised viability (CAL-120 [21])	normalised viability (CAL-148 [22])	normalised viability (CAL-51 [23])	normalised viability (CAL-85-1 [24])	normalised viability (DU-4475 [25])	normalised viability (HCC1143 [26])	normalised viability (HCC1599 [27])	normalised viability (HCC1937 [28])	normalised viability (HDQ-P1 [29])	normalised viability (Hs578T [30])	normalised viability (MDA-MB-231 [31])	normalised viability (MDA-MB-436 [32])	normalised viability (MDA-MB-453 [33])	normalised viability (MDA-MB-468 [34])	normalised viability (MFM-223 [35])	normalised viability (SK-BR-3 [36])
Cc1ccc(C(=O)N(CCCN)[C@@H](c2oc3cc(Cl)ccc3c(=O)c2Cc2ccccc2)C(C)C)cc1 (0.1 nM)	97.8%	99.1%	100%	101%	98.9%	96%	96%	96.8%	101%	101%	100%	102%	90.2%	98.7%	106%	100%	89.2%	93.2%	89%	68.8%	100%	90.3%	111%	103%	86.1%	95.9%	101%	108%	93%	126%	135%	90.4%	111%	101%	97.3%	105%	105%
CO[C@H]1/C=C\C=C(/C)C(=O)NC2=CC(=O)C(NCCN(C)C)=C(C[C@@H](C)C[C@H](OC)[C@H](O)[C@@H](C)/C=C(\C)[C@@H]1OC(N)=O)C2=O [Alvespimycin] (0.1 nM)	105%	105%	105%	106%	69.6%	100%	109%	95.1%	112%	92.7%	94.8%	91.2%	101%	98.5%	97.5%	111%	116%	107%	111%	102%	91.9%	100%	102%	92.8%	102%	108%	103%	76%	113%	105%	117%	99.7%	98%	99.2%	104%	99.9%	104%
CCC1(c2ccc(N)cc2)CCC(=O)NC1=O (centres undefined) [Aminoglutethimide] (1 nM)	103%	106%	106%	108%	112%	109%	99.1%	97%	91.7%	96.2%	98.4%	96.9%	97.8%	110%	87.3%	98.6%	104%	99.8%	103%	91.1%	93.2%	110%	107%	86.1%	115%	98.7%	109%	95.7%	97.3%	92.7%	107%	85.4%	98.2%	89.7%	97.1%	108%	90%
Cn1c(CCCC(=O)O)nc2cc(N(CCCl)CCCl)ccc21 [Bendamustine] (1 nM)	107%	101%	99.5%	116%	75.8%	105%	108%	104%	99.5%	103%	102%	99.8%	103%	106%	97.5%	127%	108%	106%	117%	108%	106%	90.5%	108%	102%	90.2%	111%	112%	107%	103%	65.9%	104%	116%	109%	109%	110%	94.8%	93.2%
C=C(c1ccc(C(=O)O)cc1)c1cc2c(cc1C)C(C)(C)CCC2(C)C [Bexarotene] (1 nM)	103%	103%	99.6%	107%	105%	99.7%	99.6%	99.7%	98.9%	100%	102%	93.2%	99.8%	107%	89.5%	111%	109%	97.5%	102%	81.1%	88.7%	115%	105%	94.1%	102%	82.5%	110%	101%	108%	84.7%	111%	86.1%	82.5%	83.5%	105%	99.6%	94.8%
COc1cc2nccc(Oc3ccc(NC(=O)C4(C(=O)Nc5ccc(F)cc5)CC4)cc3)c2cc1OC [Cabozantinib] (0.1 nM)	101%	102%	103%	99.7%	87.8%	97.1%	95.2%	96.2%	113%	100%	95.2%	100%	92.2%	104%	83.3%	116%	103%	99.5%	97.5%	100%	115%	83.8%	107%	103%	90.2%	101%	95.4%	77.6%	94.8%	96.1%	97.4%	115%	103%	99.4%	105%	93%	101%
C[C@@H](Oc1cc(-c2cnn(C3CCNCC3)c2)cnc1N)c1c(Cl)ccc(F)c1Cl [Crizotinib] (1 nM)	101%	91.8%	91.7%	91.3%	117%	96.6%	105%	102%	106%	105%	96.4%	101%	94.9%	108%	103%	100%	99.8%	101%		113%	75.4%	90.6%	101%	108%	83.9%	101%	86.5%	85.4%	105%	61.5%	90.5%	93.3%	74.1%	95.3%	91.4%	87.8%	98.5%
C[C@]12CC[C@@H]3c4ccc(O)cc4C[C@@H](CCCCCCCCC[S+]([O-])CCCC(F)(F)C(F)(F)F)[C@H]3[C@@H]1CC[C@@H]2O (some centres undefined) [Fulvestrant] (1 nM)	103%	98.4%	97.4%	103%	119%	101%	102%	105%	90.3%	96.9%	99.3%	111%	103%	101%	105%	112%	97.8%	104%		70.6%	89.9%	77.8%	102%	111%	78.7%	97.6%	79.1%	94.6%	87.6%	93.6%	90.2%	79%	106%	100%	93.2%	74.9%	108%
